Source: patent US7041698B2, “Hepatitis C virus inhibitors” (Bristol-Myers Squibb Company, priority 2002, dated 2006)
pEC50, pIC50: −log10 of the molar value. Read-outs that look alike come from different tables or passages of the source.

Assays:
[1] = target: T1, HCV NS3/4A protease complex (UniProt P27958, C1454S/C1711G, species not given); experiment: Recombinant HCV NS3/4A protease complex FRET peptide assay (strain not stated); format: biochemical
T1 construct: fused on or other part: Three-lysine solubilising tail at the C-terminus of NS4A
Source text: Recombinant HCV NS3/4A Protease Complex FRET Peptide Assay
The purpose of this in vitro assay was to measure the inhibition of HCV NS3 protease complexes, derived from the BMS, H77C or J416S strains, as described below, by compounds of the present invention. This assay provides an indication of how effective compounds of the present invention would be in inhibiting HCV proteolytic activity.
Serum from an HCV-infected patient was obtained from Dr. T. Wright, San Francisco Hospital. An engineered full-length cDNA (compliment deoxyribonucleic acid) template of the HCV genome (BMS strain) was constructed from DNA fragments obtained by reverse transcription-PCR (RT-PCR) of serum RNA (ribonucleic acid) and using primers selected on the basis of homology between other genotype 1a strains. From the determination of the entire genome sequence, a genotype 1a was assigned to the HCV isolate according to the classification of Simmonds et al. (See P Simmonds, K A Rose, S Graham, S W Chan, F McOmish, B C Dow, E A Follett, P L Yap and H Marsden, J. Clin. Microbiol., 31(6), 1493–1503 (1993)). […] The infectious clones, H77C (1a genotype) and J4L6S (1b genotype) were obtained from R. Purcell (NIH) and the sequences are published in Genbank (AAB67036, see Yanagi, M., Purcell, R. H., Emerson, S. U. and Bukh, J. Proc. Natl. Acad. Sci. U.S.A. 94(16),8738–8743 (1997); AF054247, see Yanagi, M., St Claire, M., Shapiro, M., Emerson, S. U., Purcell, R. H. and Bukh, J, Virology 244 (1), 161–172. (1998)).
The BMS, H77C and J4L6S strains were used for production of recombinant NS3/4A protease complexes. DNA encoding the recombinant HCV NS3/4A protease complex (amino acids 1027 to 1711) for these strains were manipulated as described by P. Gallinari et al. (see Gallinari P, Paolini C, Brennan D, Nardi C, Steinkuhler C, De Francesco R. Biochemistry. 38(17):5620–32, (1999)). Briefly, a three-lysine solubilizing tail was added at the 3′-end of the NS4A coding region. The cysteine in the P1 position of the NS4A-NS4B cleavage site (amino acid 1711) was changed to a glycine to avoid the proteolytic cleavage of the lysine tag. Furthermore, a cysteine to serine mutation was introduced by PCR at amino acid position 1454 to prevent the autolytic cleavage in the NS3 helicase domain. The variant DNA fragment was cloned in the pET21b bacterial expression vector (Novagen) and the NS3/4A complex was expressed in Escherichia. coli strain BL21 (DE3) (Invitrogen) following the protocol described by P. Gallinari et al. (see Gallinari P, Brennan D, Nardi C, Brunetti M, Tomei L, Steinkuhler C, De Francesco R., J. Virol. 72(8):6758–69 (1998)) with modifications. Briefly, NS3/4A expression was induced with 0.5 mM Isopropyl β-D-1-thiogalactopyranoside (IPTG) for 22 hr at 20° C. A typical fermentation (10L) yielded approximately 80 g of wet cell paste. The cells were resuspended in lysis buffer (10 mL/g) consisting of 25 mM N-(2-Hydroxyethyl)Piperazine-N′-(2-Ethane Sulfonic acid) (HEPES), pH7.5, 20% glycerol, 500 mM Sodium Chloride (NaCl), 0.5% Triton-X100, 1 ug/ml lysozyme, 5 mM Magnesium Chloride (MgCl2), lug/ml Dnasel, 5 mM β-Mercaptoethanol (βME), Protease inhibitor—Ethylenediamine Tetraacetic acid (EDTA) free (Roche), homogenized and incubated for 20 mins at 4° C. The homogenate was sonicated and clarified by ultra-centrifugation at 235000 g for 1 hr at 4° C. Imidazole was added to the supernatant to a final concentration of 15 mM and the pH adjusted to 8.0. The crude protein extract was loaded on a Nickel-Nitrilotriacetic acid (Ni-NTA) column pre-equilibrated with buffer B (25 mM HEPES, pH 8.0, 20% glycerol, 500 mM NaCl, 0.5% Triton-X100, 15 mM imidazole, 5 mM βME). The sample was loaded at a flow rate of 1 mL/min. The column was washed with 15 column volumes of buffer C (same as buffer B except with 0.2% Triton-X100). The protein was eluted with 5 column volumes of buffer D (same as buffer C except with 200 mM Imidazole). […]

[2] = test system: HCV replicon in Huh7 cells; experiment: HCV replicon cell-based assay; set-up: species or system HCV strain 1B; details: HCV replicon, 4 days, read-out: EC50 range
Source text: HCV Replicon Cell-based Assay
An HCV replicon whole cell system was established as described by Lohmann V, Komer F, Koch J, Herian U, Theilmann L, Bartenschlager R., Science 285(5424):110–3 (1999). This system enabled us to evaluate the effects of our HCV Protease compounds on HCV RNA replication. Briefly, using the HCV strain 1B sequence described in the Lohmann paper (Assession number:AJ238799), an HCV cDNA was generated encoding the 5′ internal ribosome entry site (IRES), the neomycin resistance gene, the EMCV (encephalomyocarditis viurs)-IRES and the HCV nonstructural proteins, NS3-NS5B, and 3′ non-translated region (NTR). In vitro transcripts of the cDNA were transfected into the human hepatoma cell line, Huh7. […] Resulting cell lines were characterized for positive and negative strand RNA production and protein production over time.
Huh7 cells, constitutively expressing the HCV replicon, were grown in Dulbecco's Modified Eagle Media (DMEM) containing 10% Fetal calf serum (FCS) and 1 mg/ml G418 (Gibco-BRL). Cells were seeded the night before (1.5×10^4 cells/well) in 96-well tissue-culture sterile plates. Compound and no compound controls were prepared in DMEM containing 4% FCS, 1:100 Penicillin/Streptomysin, 1:100 L-glutamine and 5% DMSO in the dilution plate (0.5% DMSO final concentration in the assay). Compound/DMSO mixes were added to the cells and incubated for 4 days at 37° C. After 4 days, plates were rinsed thoroughly with Phosphate-Buffered Saline (PBS) (3 times 150 μl). The cells were lysed with 25 μl of a lysis assay reagent containing the FRET peptide (RET S1, as described for the in vitro enzyme assay). The lysis assay reagent was made from 5× cell Luciferase cell culture lysis reagent (Promega #E153A) diluted to 1× with distilled water, NaCl added to 150 mM final, the FRET peptide diluted to 10 μM final from a 2 mM stock in 100% DMSO. The plate was then placed into the Cytofluor 4000 instrument which had been set to 340 nm excitation/490 emission, automatic mode for 21 cycles and the plate read in a kinetic mode. EC50 determinations were carried out as described for the IC50 determinations.
As a secondary assay, EC50 determinations from the replicon FRET assay were confirmed in a quantitative RNA assay. Cells were lyzed using the Rneasy kit (Qiagen). Purified total RNA was normalized using RiboGreen (Jones L J, Yue S T, Cheung C Y, Singer V L, Anal. Chem., 265(2):368–74 (1998)) and relative quantitation of HCV RNA expression assessed using the Taqman procedure (Kolykhalov A A, Mihalik K, Feinstone S M, Rice C M, Journal of Virology 74, 2046–2051 (2000)) and the Platinum Quantitative RT-PCR Thermoscript One-Step kit (Invitrogen cat # 11731-015). Briefly, RNA made to a volume of 5 μl (<1 ng) was added to a 20 μl Ready-Mix containing the following: 1.25× Thermoscript reaction mix (containing Magnesium Sulfate and 2-deoxynucleoside 5′-triphosphates (dNTPs)), 3 mM dNTPs, 200 nM forward primer (sequence: 5′-[…]-3′), 600 nM reverse primer (5′-[…]-3′), 100 nM probe (5′-6-FAM-[…]-BHQ-1-3′)(FAM: Fluorescein-aminohexyl amidite; BHQ: Black Hole Quencher), 1 μM Rbx reference dye (Invitrogen cat # 12223-012) and Thermoscript Plus Platinum Taq polymerase mixture. All primers were designed with ABI Prism 7700 software and obtained from Biosearch Technologies, Novato, Calif. Samples containing known concentrations of HCV RNA transcript were run as standards. Using the following cycling protocol (50° C., 30 min; 95° C., 5 min; 40 cycles of 95° C., 15 sec, 60° C., 1 min), HCV RNA expression was quantitated as described in the Perkin Elmer manual using the ABI Prism 7700 Sequence Detector.
The luciferase reporter assay was also used to confirm compound potency in the replicon. Utilization of a replicon luciferase reporter assay was first described by Krieger et al (Krieger N, Lohmann V, and Bartenschlager R, J. Virol. 75(10):4614–4624 (2001)). […]

[3] = HCV NS3/4A protease enzyme assay, read-out: IC50 range

Compound	pIC50 [1, 3]	pEC50 [2]	pEC50 ([2]; Hepatitis C virus, Huh-7, 96 h)	pIC50 ([1]; read-out: IC50 range, HCV NS3/4A protease enzyme assay)
C=CC1C[C@]1(NC(=O)[C@@H]1C[C@@H](OC(=O)Nc2ccccc2/C(=N/O)c2ccccc2)CN1C(=O)[C@@H](NC(=O)OC(C)(C)C)C(C)(C)C)C(=O)NS(=O)(=O)C1CC1 (single isomer, unassigned) [Compound 77a]	6.00 to 7.00	5.00 to 6.00	–	–
C=CC1C[C@]1(NC(=O)[C@@H]1C[C@@H](OC(=O)Nc2ccccc2/C(=N/O)c2ccccc2)CN1C(=O)[C@@H](NC(=O)OC(C)(C)C)C(C)(C)C)C(=O)NS(=O)(=O)C1CC1 (single isomer, unassigned) [Compound 77b]	6.00 to 7.00	< 5.00	–	–
C=CC1C[C@]1(NC(=O)[C@@H]1C[C@@H](OC(=O)N(C)c2ccccc2)CN1C(=O)[C@@H](NC(=O)OC(C)(C)C)C(C)(C)C)C(=O)NS(=O)(=O)C1CC1 (stereo partly drawn) [Compound 1, BocNH-P3(t-BuGly)-P2(Hyp(O—CO(N-methyl,N-phenyl)))-P1(1R,2S VinylAcca)—CONHSO2Cyclopropane]	6.00 to 7.00	–	5.00 to 6.00	–
C=CC1C[C@]1(NC(=O)[C@@H]1C[C@@H](OC(=O)NCc2ccccc2C)CN1C(=O)[C@@H](NC(=O)OC(C)(C)C)C(C)(C)C)C(=O)NS(=O)(=O)C1CC1 (stereo partly drawn) [Compound 2, BocNH-P3(t-BuGly)-P2(Hyp(O—CO(NH—(2-methylbenzyl))))-P1(1R,2S VinylAcca)—CONHSO2Cyclopropane]	6.00 to 7.00	–	5.00 to 6.00	–
C=CC1C[C@]1(NC(=O)[C@@H]1C[C@@H](OC(=O)N[C@@H]2C[C@H]2c2ccccc2)CN1C(=O)[C@@H](NC(=O)OC(C)(C)C)C(C)(C)C)C(=O)NS(=O)(=O)C1CC1 (stereo partly drawn) [Compound 3, BocNH-P3(t-BuGly)-P(Hyp(O—CO(NH-2(trans)-phenylcyclopropyl)))-P1(1R,2S VinylAcca)—CONHSO2Cyclopropane]	> 7.00	–	5.00 to 6.00	–
C=CC1C[C@]1(NC(=O)[C@@H]1C[C@@H](OC(=O)N2CCOCC2)CN1C(=O)[C@@H](NC(=O)OC(C)(C)C)C(C)(C)C)C(=O)NS(=O)(=O)C1CC1 (stereo partly drawn) [Compound 4, BocNH-P3(t-BuGly)-P2(Hyp(O—CO—(4-morpholino)))-P1(1R,2S VinylAcca)—CONHSO2Cyclopropane]	6.00 to 7.00	–	< 5.00	–
C=CCN(CC=C)C(=O)O[C@@H]1C[C@@H](C(=O)N[C@]2(C(=O)NS(=O)(=O)C3CC3)CC2C=C)N(C(=O)[C@@H](NC(=O)OC(C)(C)C)C(C)(C)C)C1 (stereo partly drawn) [Compound 5, BocNH-P3(t-BuGly)-P2(Hyp(O—CO(N,N-diallyl)))-P1(1R,2S VinylAcca)—CONHSO2Cyclopropane]	6.00 to 7.00	–	5.00 to 6.00	–
C=CC1C[C@]1(NC(=O)[C@@H]1C[C@@H](OC(=O)NC2CCCCC2)CN1C(=O)[C@@H](NC(=O)OC(C)(C)C)C(C)(C)C)C(=O)NS(=O)(=O)C1CC1 (stereo partly drawn) [Compound 6, BocNH-P3(t-BuGly)-P2(Hyp(O—CO(NH-cyclohexyl)))-P1(1R,2S VinylAcca)—CONHSO2Cyclopropane]	> 7.00	–	5.00 to 6.00	–
C=CC1C[C@]1(NC(=O)[C@@H]1C[C@@H](OC(=O)NCCc2ccccc2)CN1C(=O)[C@@H](NC(=O)OC(C)(C)C)C(C)(C)C)C(=O)NS(=O)(=O)C1CC1 (stereo partly drawn) [Compound 7, BocNH-P3(t-BuGly)-P2(Hyp(O—CO(NH-phenethyl)))-P1(1R,2S VinylAcca)—CONHSO2Cyclopropane]	–	–	5.00 to 6.00	6.00 to 7.00
C=CC1C[C@]1(NC(=O)[C@@H]1C[C@@H](OC(=O)Nc2cc(Cl)ccc2OC)CN1C(=O)[C@@H](NC(=O)OC(C)(C)C)C(C)(C)C)C(=O)NS(=O)(=O)C1CC1 (stereo partly drawn) [Compound 9, BocNH-P3(t-BuGly)-P2(Hyp(O—CO(NH—(5-chloro-2-methoxy-phenyl))))-P1(1R,2S VinylAcca)—CONHSO2Cyclopropane]	> 7.00	–	6.00 to 7.00	–
C=CC1C[C@]1(NC(=O)[C@@H]1C[C@@H](OC(=O)Nc2ccc3c(c2)OCO3)CN1C(=O)[C@@H](NC(=O)OC(C)(C)C)C(C)(C)C)C(=O)NS(=O)(=O)C1CC1 (stereo partly drawn) [Compound 10, BocNH-P3(t-BuGly)-P2(Hyp(O—CO(NH-Benzo[1,3]dioxol-5-yl)))-P1(1R,2S VinylAcca)—CONHSO2Cyclopropane]	6.00 to 7.00	–	< 5.00	–
